“And” between values parts separate entries of the source, which are not always exact repeats. Identical values can stand only once. One block for each molecule: values may come before it.
Assay: photoluminescence quantum yield (fraction); solvent given as SMILES

photoluminescence quantum yield (in C1CCOC1): 0.29
Compound: CCN(CC)c1ccc(C(=C(c2ccc(B(c3c(C)cc(C)cc3C)c3c(C)cc(C)cc3C)cc2)c2ccc(B(c3c(C)cc(C)cc3C)c3c(C)cc(C)cc3C)cc2)c2ccc(N(CC)CC)cc2)cc1

photoluminescence quantum yield (in CC#N): 0.83
photoluminescence quantum yield (in CCCCCC): 0.91
photoluminescence quantum yield (in CCOC(C)=O): 0.9
photoluminescence quantum yield (in CO): 0.85
photoluminescence quantum yield (in ClCCl): 0.93
Compound: CCc1c(C)c2n(c1C)[B-](F)(F)[N+]1=C(NCc3ccc(OC)cc3)C(SC#N)=CC1=C2C

photoluminescence quantum yield (in CCCCCC): 0.12
Compound: CC(C)[Si](C#Cc1c2ccccc2c(C#C[Si](C(C)C)(C(C)C)C(C)C)c2nc3c(ccc4cc5ccccc5cc43)nc12)(C(C)C)C(C)C

photoluminescence quantum yield (in ClC(Cl)Cl): 0.12
photoluminescence quantum yield (in ClCCl): 0.12
Compound: COc1ccc2cc(C3=[N+]4C(=Nc5c(-c6ccccc6)cc(-c6ccc7cc(OC)ccc7c6)n5[B-]4(F)F)C(c4ccccc4)=C3Br)ccc2c1

photoluminescence quantum yield (in CO): 0.05
Compound: CC1(C)C(/C=C/C2=C(Cl)C(=C/C=C3/N(CCCS(=O)(=O)[O-])c4ccccc4C3(C)C)/CCC2)=[N+](CCCS(=O)(=O)[O-])c2ccccc21

photoluminescence quantum yield (in ClC(Cl)Cl): 0.34
Compound: F[B-]1(F)n2c(cc3oc4ccccc4c32)C(c2ccc(I)cc2)=C2C=c3oc4ccccc4c3=[N+]21

photoluminescence quantum yield (in CS(C)=O): 0.12
Compound: CCCCN1/C(=C/C=C/C2=[N+](C)c3ccccc3C2(C)C)C(C)(C)c2cc(Br)ccc21

photoluminescence quantum yield (in C1CCOC1): 0.063
Compound: Cc1cc(C)c([B-]2(c3c(C)cc(C)cc3C)[O+]=P(c3ccccc3)(c3ccccc3)c3cc(C#Cc4ccccc4)sc3-c3sc(C#Cc4ccccc4)cc32)c(C)c1

photoluminescence quantum yield (in ClCCl): 0.34
Compound: CCOCCOCCOC(=O)/C=C/C1=CC2=C(c3c(C)cc(C)cc3C)c3cc(/C=C/C(=O)OCCOCCOCC)cn3[B-](F)(F)[N+]2=C1

photoluminescence quantum yield (in CC#N): 0.84
photoluminescence quantum yield (in ClCCl): 0.98
Compound: COc1ccc(-c2cc3c(s2)c(C(C)=O)cc(=O)n3C)cc1

photoluminescence quantum yield (in ClC(Cl)Cl): 0.06
Compound: Oc1ccc(C2=[N+]3C(=C(c4ccccc4)c4cccn4[B-]3(F)F)C=C2)cc1

photoluminescence quantum yield (in ClC(Cl)Cl): 0.03 and 0.07
Compound: C(#Cc1cccs1)C(C#Cc1cccs1)=Cc1ccc(C=C(C#Cc2cccs2)C#Cc2cccs2)s1

photoluminescence quantum yield (in ClC(Cl)Cl): 0.21
Compound: CCCCN1c2ccccc2Sc2cc(/C=C\c3cc(=O)oc4cc(C)ccc34)ccc21

photoluminescence quantum yield (in CC(C)O): 0.1
Compound: CN1C(=CC2=C([O-])C(=CC3=[N+](C)c4ccc(Cl)cc4C3(C)C)C2=O)C(C)(C)c2cc(Cl)ccc21

photoluminescence quantum yield (in ClC(Cl)Cl): 0
Compound: Cc1nc2c(ccc3c2sc(/C=C/c2ccc(N(c4ccccc4)c4ccccc4)cc2)[n+]3C)s1

Further lines, the molecule ahead of its results:

Compound: CCCCCCCCc1ccc(-c2c3cc(-c4cc(CCCCCCCC)c(-c5ccc(-c6sc(/C=C7\SC(SCC)=NC7=O)cc6CCCCCCCC)s5)s4)sc3c(-c3ccc(CCCCCCCC)s3)c3cc(-c4cc(CCCCCCCC)c(-c5ccc(-c6sc(/C=C7\SC(SCC)=NC7=O)cc6CCCCCCCC)s5)s4)sc23)s1
photoluminescence quantum yield (in C1CCOC1): 0.078
photoluminescence quantum yield (in ClC(Cl)Cl): 0.037

Compound: CCN1c2ccc(/C=N/Nc3ccccn3)cc2Sc2cc(-c3cccc4ccccc34)ccc21
photoluminescence quantum yield (in C1CCOC1): 0.2
photoluminescence quantum yield (in CS(C)=O): 0.35
photoluminescence quantum yield (in Cc1ccccc1): 0.1
photoluminescence quantum yield (in ClCCl): 0.3

Compound: CCCCCCCCCCCCn1cccc1/C=C/c1ccc(OCCCC)c2c(/C=C/c3cccn3CCCCCCCCCCCC)ccc(OCCCC)c12
photoluminescence quantum yield (in Cc1ccccc1): 0.35

Compound: F[B-]1(F)n2c(/C=C/c3ccc(C(=C(c4ccccc4)c4ccccc4)c4ccccc4)cc3)ccc2C(c2ccc(C(=C(c3ccccc3)c3ccccc3)c3ccccc3)cc2)=C2C=CC(/C=C/c3ccc(C(=C(c4ccccc4)c4ccccc4)c4ccccc4)cc3)=[N+]21
photoluminescence quantum yield (in C1CCOC1): 0.503

Compound: CCOC(=O)c1sc2nc(C)c(CC)c(C#N)c2c1N
photoluminescence quantum yield (in c1ccccc1): 0.054

Compound: F[B-]1(F)N2C(=Nc3cccc4cccc2c34)c2cccc[n+]21
photoluminescence quantum yield (in CC#N): 0.0002
photoluminescence quantum yield (in CO): 0.007
photoluminescence quantum yield (in CS(C)=O): 0.0005
photoluminescence quantum yield (in Cc1ccccc1): 0.006

Compound: CCCCCCCCCCCCCCCCOc1cc(C#Cc2ccc3ccccc3c2)c(OCCCCCCCCCCCCCCCC)cc1C#Cc1ccc(C=C(C#N)C#N)cc1
photoluminescence quantum yield (in Brc1ccccc1): 0.43
photoluminescence quantum yield (in C1CCCCC1): 0.9
photoluminescence quantum yield (in C1CCOC1): 0.5
photoluminescence quantum yield (in C1COCCO1): 0.5
photoluminescence quantum yield (in CCCCCC): 0.87
photoluminescence quantum yield (in CCCCCCCCO): 0.35
photoluminescence quantum yield (in CCCCOCCCC): 0.81
photoluminescence quantum yield (in CCOC(C)=O): 0.23
photoluminescence quantum yield (in CCOCC): 0.79
photoluminescence quantum yield (in Cc1ccccc1): 0.82
photoluminescence quantum yield (in ClC(Cl)(Cl)Cl): 0.81
photoluminescence quantum yield (in ClC(Cl)Cl): 0.78
photoluminescence quantum yield (in ClCCl): 0.19

Compound: CC(C)(C(=O)c1ccc(N2c3ccccc3C(C)(C)c3ccccc32)cc1)C(=O)c1ccc(N2c3ccccc3C(C)(C)c3ccccc32)cc1
photoluminescence quantum yield (in c1ccc2c(c1)c1ccccc1n2-c1ccc(-c2ccc(-n3c4ccccc4c4ccccc43)cc2)cc1): 0.64

Compound: c1ccc(-c2ccc(-c3nc(-n4c5ccccc5c5ccc6c7ccccc7n(-c7ccccc7)c6c54)nc(-n4c5ccccc5c5ccc6c7ccccc7n(-c7ccccc7)c6c54)n3)cc2)cc1
photoluminescence quantum yield (in Cc1ccccc1): 0.1

Compound: c1cc(-c2c3ccccc3c(-c3ccc4ccccc4c3)c3ccccc23)cc(-n2c3ccccc3c3ccccc32)c1
photoluminescence quantum yield (in ClCCl): 0.73

Compound: CC(C)(C)c1ccc(N2c3ccc(C(C)(C)C)cc3B3c4cc(C(C)(C)C)ccc4N(c4ccc(C(C)(C)C)cc4)c4cc(-n5c6ccc(C(C)(C)C)cc6c6cc(C(C)(C)C)ccc65)cc2c43)cc1
photoluminescence quantum yield (in Cc1ccccc1): 0.975

Compound: CCN(CC)c1ccc2cc(/C=C/C3=CC(/C=C/c4cc5ccc(N(CC)CC)cc5oc4=O)=[O+][B-](F)(F)O3)c(=O)oc2c1
photoluminescence quantum yield (in CC#N): 0.012
photoluminescence quantum yield (in CC(C)=O): 0.032
photoluminescence quantum yield (in CCOC(C)=O): 0.418
photoluminescence quantum yield (in CN(C)C=O): 0.096
photoluminescence quantum yield (in CS(C)=O): 0.008
photoluminescence quantum yield (in Cc1ccccc1): 0.849
photoluminescence quantum yield (in ClC(Cl)Cl): 0.504
photoluminescence quantum yield (in ClCCl): 0.271

Compound: COCCOCCOCCOCCOc1cc(C=O)c(OCCOCCOCCOCCOC)cc1C=O
photoluminescence quantum yield (in CC(C)(C)O): 0.12
photoluminescence quantum yield (in CC(C)CO): 0.1
photoluminescence quantum yield (in CC(C)O): 0.11
photoluminescence quantum yield (in CCCCO): 0.09
photoluminescence quantum yield (in CCCO): 0.14
photoluminescence quantum yield (in CCO): 0.18
photoluminescence quantum yield (in CN(C)C=O): 0.04
photoluminescence quantum yield (in CNC=O): 0.05
photoluminescence quantum yield (in CO): 0.22
photoluminescence quantum yield (in NC=O): 0.31
photoluminescence quantum yield (in O): 0.55

Compound: COc1ccc(-c2csc(-c3ccncc3)n2)cc1
photoluminescence quantum yield (in CC#N): 0.002
photoluminescence quantum yield (in CCO): 0.22
photoluminescence quantum yield (in CN(C)C=O): 0.158
photoluminescence quantum yield (in CS(C)=O): 0.163
photoluminescence quantum yield (in Cc1ccccc1): 0.037
photoluminescence quantum yield (in ClCCl): 0.089

Compound: COc1cc2c3c4c(c5ccc(C(C)(C)C)cc5c5cc(C(C)(C)C)cc(c2c(OC)c1OC)c45)=[N+]1C3=Nc2c3c4cc(OC)c(OC)c(OC)c4c4cc(C(C)(C)C)cc5c6cc(C(C)(C)C)ccc6c(c3c54)n2[B-]1(F)F
photoluminescence quantum yield (in Cc1ccccc1): 0.07

Compound: NC(=O)CC[C@H](/[NH+]=C\C=C1\C=C(C(=O)O)N[C@H](C(=O)O)C1)C(=O)O
photoluminescence quantum yield (in CCO): 0.017
photoluminescence quantum yield (in CO): 0.011
photoluminescence quantum yield (in O): 0.0073
photoluminescence quantum yield (in OCC(F)(F)F): 0.014
photoluminescence quantum yield (in OCCO): 0.039

Compound: c1ccc(-c2ccc(-c3ccc(-n4c5ccccc5c5ccccc54)cc3)c3nsnc23)cc1
photoluminescence quantum yield (in C1CCOC1): 0.426
photoluminescence quantum yield (in CC(C)=O): 0.059
photoluminescence quantum yield (in CCCCCC): 0.697
photoluminescence quantum yield (in CCOCC): 0.599

Compound: c1ccc(-c2nc(-c3ccccc3)nc(-c3ccc(N4c5ccccc5C5(c6ccccc64)c4ccccc4N(c4ccc(-c6nc(-c7ccccc7)nc(-c7ccccc7)n6)cc4)c4ccccc45)cc3)n2)cc1
photoluminescence quantum yield (in O=P(c1ccccc1)(c1ccccc1)c1ccccc1Oc1ccccc1P(=O)(c1ccccc1)c1ccccc1): 0.79

Compound: Cc1cc(C)c(C2=C3C=C(c4ccccc4)C(c4ccccc4)=[N+]3[B-](F)(F)n3c2cc(-c2ccccc2)c3-c2ccccc2)c(C)c1
photoluminescence quantum yield (in C1CCCCC1): 0.94
photoluminescence quantum yield (in C1CCOC1): 0.9
photoluminescence quantum yield (in CC#N): 0.87
photoluminescence quantum yield (in Cc1ccccc1): 0.75
photoluminescence quantum yield (in ClCCl): 0.74

Compound: CCN(CC)c1ccc2cc(-c3cc(SC)c(C#N)c(=O)o3)c(=O)oc2c1
photoluminescence quantum yield (in C1CCOC1): 0.72
photoluminescence quantum yield (in CC#N): 0.56
photoluminescence quantum yield (in CC(C)=O): 0.67
photoluminescence quantum yield (in CCOC(C)=O): 0.8
photoluminescence quantum yield (in CN(C)C=O): 0.4
photoluminescence quantum yield (in CO): 0.55
photoluminescence quantum yield (in CS(C)=O): 0.55
photoluminescence quantum yield (in Cc1ccccc1): 0.72
photoluminescence quantum yield (in ClC(Cl)Cl): 0.66
photoluminescence quantum yield (in ClCCl): 0.81

Compound: CCN(CC)c1ccc2cc(/C(Cl)=C/C=C/C(=C(C#N)C#N)c3ccc4c(c3)c3ccccc3n4CC)c(=O)oc2c1
photoluminescence quantum yield (in CC(C)=O): 0.019
photoluminescence quantum yield (in CCOC(C)=O): 0.052
photoluminescence quantum yield (in CN(C)C=O): 0.042
photoluminescence quantum yield (in CS(C)=O): 0.018
photoluminescence quantum yield (in Cc1ccccc1): 0.091
photoluminescence quantum yield (in ClCCl): 0.096

Compound: Cc1cc(C)c(B(c2c(C)cc(C)cc2C)N2c3ccccc3C(C)(C)c3ccccc32)c(C)c1
photoluminescence quantum yield (in C1CCCCC1): 0.931
photoluminescence quantum yield (in Cc1ccccc1): 0.802
photoluminescence quantum yield (in ClCCl): 0.9

Compound: CCn1c2ccsc2c2c3nsnc3c3c4sccc4n(CC)c3c21
photoluminescence quantum yield (in C1CCOC1): 0.68
photoluminescence quantum yield (in CCOC(C)=O): 0.63
photoluminescence quantum yield (in CN(C)C=O): 0.42
photoluminescence quantum yield (in Cc1ccccc1): 0.73
photoluminescence quantum yield (in ClCCl): 0.33

Compound: N#Cc1nc(N(Cc2ccc(I)cc2)Cc2ccc(I)cc2)c(C#N)nc1N(Cc1ccc(I)cc1)Cc1ccc(I)cc1
photoluminescence quantum yield (in ClC(Cl)Cl): 0.79

Compound: CCN(CC)c1ccc(/C=C/C2=[O+][B-](F)(F)Oc3c2c(=O)oc2cc(N(CC)CC)ccc32)cc1
photoluminescence quantum yield (in C1CCCCC1): 0.46
photoluminescence quantum yield (in C1COCCO1): 0.72
photoluminescence quantum yield (in CC#N): 0.011
photoluminescence quantum yield (in CC(C)=O): 0.021
photoluminescence quantum yield (in CCO): 0.044
photoluminescence quantum yield (in CCOC(C)=O): 0.16
photoluminescence quantum yield (in CO): 0.016
photoluminescence quantum yield (in CS(C)=O): 0.035
photoluminescence quantum yield (in Cc1ccccc1): 0.93
photoluminescence quantum yield (in ClC(Cl)Cl): 0.75
photoluminescence quantum yield (in ClCCl): 0.16
photoluminescence quantum yield (in OCC(O)CO): 0.36
photoluminescence quantum yield (in OCCO): 0.072

Compound: c1ccc(-c2nc3c4ccccc4c4ccccc4c3n2-c2ccc(-c3nc4c5ccccc5c5ccccc5c4n3-c3ccccc3)cc2)cc1
photoluminescence quantum yield (in Cc1ccccc1): 0.82

Source: the Deep4Chem optical property database
